How the values were obtained:
[1] = system: Mycosphaerella graminicola (Septoria tritici); assay: Mycosphaerella graminicola (Septoria tritici) / liquid culture (Septoria blotch); assay type: cell-based; settings: Zymoseptoria tritici, liquid culture (potato dextrose broth), growth inhibition photometrically 4-5 days after application, compared to untreated control
Method: Example B15: Mycosphaerella graminicola (Septoria tritici/Liquid Culture (Septoria Blotch) Conidia of the fungus from cryogenic storage are directly mixed into a nutrient broth (potato dextrose broth). After placing a DMSO solution of test compound into a microtiter plate (96-well format), the nutrient broth containing the fungal spores is added. The test plates are incubated at 24° C. and the inhibition of growth is determined photometrically 4-5 days after application.

[2] = system: Alternaria solani; assay: Alternaria solani / tomato / leaf disc (early blight); assay type: in vivo; settings: foliar, tomato leaf disks cv. Baby, inoculated 2 days after application, assessed 5-7 days after application, compared to untreated control
Method: Example B1: Alternaria solani/Tomato/Leaf Disc (Early Blight) Tomato leaf disks cv. Baby are placed on agar in multiwell plates (24-well format) and sprayed with the formulated test compound diluted in water. The leaf disks are inoculated with a spore suspension of the fungus 2 days after application. The inoculated leaf disks are incubated at 23° C./21° C.

[3] = system: Glomerella lagenarium (Colletotrichum lagenarium); assay: Glomerella lagenarium (Colletotrichum lagenarium) / liquid culture (anthracnose); assay type: cell-based; settings: Colletotrichum orbiculare, liquid culture (potato dextrose broth), growth inhibition photometrically 3-4 days after application, compared to untreated control
Method: Example B3: Glomerella lagenarium (Colletotrichum lagenarium)/Liquid Culture (Anthracnose) Conidia of the fungus from cryogenic storage are directly mixed into a nutrient broth (potato dextrose broth). After placing a DMSO solution of test compound into a microtiter plate (96-well format), the nutrient broth containing the fungal spores is added. The test plates are incubated at 24° C. and the inhibition of growth is measured photometrically 3-4 days after application.

[4] = system: Botryotinia fuckeliana (Botrytis cinerea); assay: Botryotinia fuckeliana (Botrytis cinerea) / liquid culture (gray mould); assay type: cell-based; settings: liquid culture (Vogels broth), growth inhibition photometrically 3-4 days after application, compared to untreated control
Method: Example B2: Botryotinia fuckeliana (Botrytis cinerea)/Liquid Culture (Gray Mould) Conidia of the fungus from cryogenic storage are directly mixed into a nutrient broth (Vogels broth). After placing a DMSO solution of test compound into a microtiter plate (96-well format), the nutrient broth containing the fungal spores is added. The test plates are incubated at 24° C. and the inhibition of growth is determined photometrically 3-4 days after application.

[5] = system: Blumeria graminis f. sp. tritici (Erysiphe graminis f. sp. tritici); assay: Blumeria graminis f. sp. tritici / wheat / leaf disc preventative (powdery mildew); assay type: in vivo; settings: foliar, wheat leaf segments cv. Kanzler, inoculated 1 day after application, assessed 6-8 days after application, compared to untreated control
Method: Example B4: Blumeria graminis f. sp. tritici (Erysiphe graminis f. sp. tritici)/Wheat/Leaf Disc Preventative (Powdery Mildew on Wheat) Wheat leaf segments cv. Kanzler are placed on agar in a multiwell plate (24-well format) and sprayed with the formulated test compound diluted in water. The leaf disks are inoculated by shaking powdery mildew infected plants above the test plates 1 day after application. The inoculated leaf disks are incubated at 20° C. and 60% relative humidity under a light regime of 24 h darkness followed by 12 h light/12 h darkness in a climate chamber and the activity of a compound is assessed as percent disease control compared to untreated when an appropriate level of disease damage appears on untreated check leaf segments (6-8 days after application).

[6] = system: Mycosphaerella arachidis (Cercospora arachidicola); assay: Mycosphaerella arachidis (Cercospora arachidicola) / liquid culture (early leaf spot); assay type: cell-based; settings: liquid culture (potato dextrose broth), growth inhibition photometrically 4-5 days after application, compared to untreated control
Method: Example B10: Mycosphaerella arachidis (Cercospora arachidicola)/Liquid Culture (Early Leaf Spot) Conidia of the fungus from cryogenic storage are directly mixed into a nutrient broth (potato dextrose broth) After placing a DMSO solution of test compound into a microtiter plate (96-well format), the nutrient broth containing the fungal spores is added. The test plates are incubated at 24° C. and the inhibition of growth is determined photometrically 4-5 days after application.

[7] = system: Phaeosphaeria nodorum (Septoria nodorum); assay: Phaeosphaeria nodorum (Septoria nodorum) / wheat / leaf disc preventative (glume blotch); assay type: in vivo; settings: Parastagonospora nodorum, foliar, wheat leaf segments cv. Kanzler, inoculated 2 days after application, assessed 5-7 days after application, compared to untreated control
Method: Example B8: Phaeosphaeria Nodorum (Septoria nodorum)/Wheat/Leaf Disc Preventative (Glume Blotch) Wheat leaf segments cv. Kanzler are placed on agar in a multiwell plate (24-well format) and sprayed with the formulated test compound diluted in water. The leaf disks are inoculated with a spore suspension of the fungus 2 days after application. The inoculated test leaf disks are incubated at 20° C. and 75% relative humidity under a light regime of 12 h light/12 h darkness in a climate cabinet and the activity of a compound is assessed as percent disease control compared to untreated when an appropriate level of disease damage appears in untreated check leaf disks (5-7 days after application).

[8] = system: Fusarium culmorum; assay: microbe, parasite or virus in culture; assay type: cell-based; settings: read-out: control of Fusarium culmorum
[9] = system: Pyrenophora teres; assay: Pyrenophora teres / barley / leaf disc preventative (net blotch); assay type: in vivo; settings: foliar, barley leaf segments cv. Hasso, inoculated 2 days after application, assessed 5-7 days after application, compared to untreated control
Method: Example B12: Pyrenophora teres/Barley/Leaf Disc Preventative (Net Blotch) Barley leaf segments cv. Hasso are placed on agar in a multiwell plate (24-well format) and sprayed with the formulated test compound diluted in water. The leaf segments are inoculated with a spore suspension of the fungus 2 days after application. The inoculated leaf segments are incubated at 20° C. and 65% relative humidity under a light regime of 12 h light/12 h darkness in a climate cabinet and the activity of a compound is assessed as disease control compared to untreated when an appropriate level of disease damage appears in untreated check leaf segments (5-7 days after application).

[10] = system: Sclerotinia sclerotiorum; assay: Sclerotinia sclerotiorum / liquid culture (cottony rot); assay type: cell-based; settings: liquid culture (potato dextrose broth), growth inhibition photometrically 3-4 days after application, compared to untreated control
Method: Example B14: Sclerotinia sclerotiorum/Liquid Culture (Cottony Rot) Mycelia fragments of a newly grown liquid culture of the fungus are directly mixed into a nutrient broth (potato dextrose broth). After placing a DMSO solution of test compound into a microtiter plate (96-well format) the nutrient broth containing the fungal material is added. The test plates are incubated at 24° C. and the inhibition of growth is determined photometrically 3-4 days after application.

[11] = system: Monographella nivalis (Microdochium nivale); assay: Monographella nivalis (Microdochium nivale) / liquid culture (foot rot cereals); assay type: cell-based; settings: liquid culture (potato dextrose broth), growth inhibition photometrically 4-5 days after application, compared to untreated control
Method: Example B9: Monographella nivalis (Microdochium nivale)/Liquid Culture (Foot Rot Cereals) Conidia of the fungus from cryogenic storage are directly mixed into a nutrient broth (potato dextrose broth). After placing a DMSO solution of test compound into a microtiter plate (96-well format), the nutrient broth containing the fungal spores is added. The test plates are incubated at 24° C. and the inhibition of growth is determined photometrically 4-5 days after application.

C[C@H]1c2sccc2[C@@H](c2cnn(C)c2)CN1C(=O)c1nnc(-c2ccc(F)cc2F)s1 (racemic) [Compound P-15, [5-(2,4-difluorophenyl)-1,3,4-thiadiazol-2-yl]-[rac-(4R,7S)-7-methyl-4-(1-methylpyrazol-4-yl)-5,7-dihydro-4H-thieno[2,3-c]pyridin-6-yl]methanone]
≥ 80%: inhibition of growth at 20 ppm [1] | pest or weed control at 200 ppm [2] | inhibition of growth at 20 ppm [3] | inhibition of growth at 20 ppm [4] | pest or weed control at 200 ppm [5] | inhibition of growth at 20 ppm [6] | pest or weed control at 200 ppm [7] | inhibition of growth at 20 ppm [8] | pest or weed control at 200 ppm [9]

Cc1c([C@H]2CN(C(=O)c3cc(-c4ccc(F)cc4F)on3)Cc3ccsc32)cnn1C [Compound P-3, [5-(2,4-difluorophenyl)isoxazol-3-yl]-[(7S)-7-(1,5-dimethylpyrazol-4-yl)-6,7-dihydro-4H-thieno[3,2-c]pyridin-5-yl]methanone]
≥ 80%: inhibition of growth at 20 ppm [1] | pest or weed control at 200 ppm [2] | inhibition of growth at 20 ppm [3] | inhibition of growth at 20 ppm [4] | pest or weed control at 200 ppm [5] | inhibition of growth at 20 ppm [10] | inhibition of growth at 20 ppm [11] | pest or weed control at 200 ppm [7] | inhibition of growth at 20 ppm [8] | pest or weed control at 200 ppm [9]

Cc1c(C2CN(C(=O)c3nnc(-c4ccc(F)cc4F)s3)Cc3ccsc32)cnn1C (centres unmarked) [Compound P-7, [5-(2,4-difluorophenyl)-1,3,4-thiadiazol-2-yl]-[7-(1,5-dimethylpyrazol-4-yl)-6,7-dihydro-4H-thieno[3,2-c]pyridin-5-yl]methanone]
≥ 80%: inhibition of growth at 20 ppm [1] | inhibition of growth at 20 ppm [3] | inhibition of growth at 20 ppm [4] | pest or weed control at 200 ppm [5] | inhibition of growth at 20 ppm [6] | inhibition of growth at 20 ppm [10] | inhibition of growth at 20 ppm [11] | inhibition of growth at 20 ppm [8]

Cn1cc(C2CN(C(=O)c3nnc(-c4ccc(F)cc4F)s3)Cc3sccc32)cn1 (centres unmarked) [Compound P-24, [5-(2,4-difluorophenyl)-1,3,4-thiadiazol-2-yl]-[4-(1-methylpyrazol-4-yl)-5,7-dihydro-4H-thieno[2,3-c]pyridin-6-yl]methanone]
≥ 80%: inhibition of growth at 20 ppm [1] | pest or weed control at 200 ppm [2] | inhibition of growth at 20 ppm [3] | inhibition of growth at 20 ppm [4] | inhibition of growth at 20 ppm [6] | inhibition of growth at 20 ppm [10] | inhibition of growth at 20 ppm [11] | pest or weed control at 200 ppm [7] | inhibition of growth at 20 ppm [8] | pest or weed control at 200 ppm [9]

Cc1c(C2CN(C(=O)c3cc(-c4ccccc4F)on3)Cc3ccsc32)cnn1C (centres unmarked) [Compound P-34, [7-(1,5-dimethylpyrazol-4-yl)-6,7-dihydro-4H-thieno[3,2-c]pyridin-5-yl]-[5-(2-fluorophenyl)isoxazol-3-yl]methanone]
≥ 80%: inhibition of growth at 20 ppm [1] | pest or weed control at 200 ppm [2] | inhibition of growth at 20 ppm [3] | inhibition of growth at 20 ppm [4] | inhibition of growth at 20 ppm [6] | inhibition of growth at 20 ppm [10] | inhibition of growth at 20 ppm [11] | pest or weed control at 200 ppm [7] | inhibition of growth at 20 ppm [8] | pest or weed control at 200 ppm [9]
